Assay results: article PMC6522473, “The Pseudomonas aeruginosa lectin LecB binds to the exopolysaccharide Psl and stabilizes the biofilm matrix” (Nature Communications, 2019)

Biological target: T1, LecB (Pseudomonas aeruginosa, UniProt Q9HYN5)
T1 construct: purified LecB overexpressed in P. aeruginosa (lecB from PAO1, pJNLecB); homotetramer of 114 amino acid monomers
Assay: ITC ([…] K, three titrations)
Format: binding

T1 sequence (Q9HYN5 entry or part of it): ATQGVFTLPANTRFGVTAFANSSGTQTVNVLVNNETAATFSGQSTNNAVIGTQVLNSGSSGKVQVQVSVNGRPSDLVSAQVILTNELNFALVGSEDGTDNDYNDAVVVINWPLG

Question: How did the Kd turn out when OC[C@H]1O[C@H](O[C@H]2[C@H](O)[C@@H](CO)OC(O)[C@H]2O)[C@@H](O)[C@@H](O)[C@@H]1O (stereo partly drawn) [α-1,3′ mannobiose] was run?
Answer: The Kd was 33.6 ± 7.18 µM.

Question: With OC[C@H]1O[C@H](O[C@@H]2C(O)O[C@H](CO)[C@@H](O)[C@@H]2O)[C@@H](O)[C@@H](O)[C@@H]1O (stereo partly drawn) [α-1,2′ mannobiose] as the molecule, how does the Kd read?
Answer: The Kd was 26.6 ± 2.61 µM.
